Results published in the supplement of paper PMC11579375.

Assays:
Assay in all cases: area under the viability dose-response curve (AUC) (AUC (arbitrary units, max 500 = no viability loss)); higher = less sensitive (higher viability)
Conditions in all cases: exposure time: 120 h; concentration range: 0.1 nM - 10 µM, 6 doses
3E = tested on: 3E (embryonal-type hepatoblastoma organoid)
Protocol: (§1)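 Patient-derived hepatoblastoma tumor organoids (about 50 organoids per well, 384-well plates, medium with 5% BME) were treated with the PMC pediatric cancer drug library. Each drug was tested in duplicate at 6 concentrations (0.1 nM to 10 µM, 10-fold steps).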

27F1 = tested on: 27F1 (fetal-I hepatoblastoma organoid with intermediate liver markers)
Protocol: as §1

96F1 = tested on: 96F1 (fetal-I hepatoblastoma organoid with intermediate liver markers)
Protocol: as §1

8F1 = tested on: 8F1 (fetal-I hepatoblastoma organoid with intermediate liver markers)
Protocol: as §1

13F2 = tested on: 13F2 (fetal-II hepatoblastoma organoid with high liver markers)
Protocol: as §1

13E = tested on: 13E (embryonal-type hepatoblastoma organoid)
Protocol: as §1

17F1 = tested on: 17F1 (fetal-I hepatoblastoma organoid with intermediate liver markers)
Protocol: as §1

22E = tested on: 22E (embryonal-type hepatoblastoma organoid)
Protocol: as §1

135F2 = tested on: 135F2 (fetal-II hepatoblastoma organoid with high liver markers)
Protocol: as §1

10F2 = tested on: 10F2 (fetal-II hepatoblastoma organoid with high liver markers)
Protocol: as §1

17E = tested on: 17E (embryonal-type hepatoblastoma organoid)
Protocol: as §1

Compound	area under the viability dose-response curve (3E)	area under the viability dose-response curve (27F1)	area under the viability dose-response curve (96F1)	area under the viability dose-response curve (8F1)	area under the viability dose-response curve (13F2)	area under the viability dose-response curve (13E)	area under the viability dose-response curve (17F1)	area under the viability dose-response curve (22E)	area under the viability dose-response curve (135F2)	area under the viability dose-response curve (10F2)	area under the viability dose-response curve (17E)
CN1CC[C@@H](NC(=O)Nc2ccc(C#N)cc2)C[C@@H]1c1nc2ccccc2[nH]1 [Glasdegib]	> 500	> 500	> 500	> 500	> 500	> 500	497	> 500	> 500	448	> 500
Cc1cc(C)cc(C(=O)NOCCCCCC(=O)NO)c1 [LMK-235]	407	411	426	428	379	404	418	413	378	395	365
C=CC(=O)N1CC[C@H](n2nc(C#Cc3cc(OC)cc(OC)c3)c3c(N)ncnc32)C1 [Futibatinib]	236	> 500	> 500	482	370	372	> 500	425	> 500	440	323
CC(C)C[C@H](NC(=O)[C@H](Cc1ccccc1)NC(=O)c1cnccn1)B(O)O [Bortezomib]	133	200	210	207	182	179	170	193	191	189	173
O=C(Nc1cnn2ccc(N3CCC[C@@H]3c3cc(F)ccc3F)nc12)N1CC[C@H](O)C1 [Larotrectinib]	450	> 500	481	473	> 500	487	467	> 500	495	> 500	453
C[C@@H](Oc1cc(-n2cnc3ccc(CN4CCN(C)CC4)cc32)sc1C(N)=O)c1ccccc1C(F)(F)F	246	262	361	358	268	262	276	256	254	250	277
CN[C@@H](C)C(=O)N[C@H](C(=O)N1CCC[C@H]1C(=O)N[C@H]1c2ccccc2C[C@H]1OCC#CC#CCO[C@@H]1Cc2ccccc2[C@@H]1NC(=O)[C@@H]1CCCN1C(=O)[C@@H](NC(=O)[C@H](C)NC)C1CCCCC1)C1CCCCC1 [AZD5582]	148	394	458	414	470	424	446	82.8	483	321	473
Cc1cccc(-c2[nH]c(CNc3ccccc3F)nc2-c2ccc3ncnn3c2)n1 [Vactosertib]	419	> 500	496	491	> 500	493	> 500	481	481	394	> 500
CC[C@H](Nc1nc(NCc2cnc(C)cc2C)c2ncn(C(C)C)c2n1)[C@@H](C)O [CYC065]	382	347	333	377	328	400	366	419	387	325	381
Nc1ncn([C@H]2C[C@H](O)[C@@H](CO)O2)c(=O)n1 [Decitabine (Guadecitabine)]	453	487	455	478	392	485	466	477	440	375	461
CNC(=O)c1ccc(-c2cnc3ncc(Cc4ccc5ncccc5c4)n3n2)cc1F [Capmatinib]	> 500	465	478	460	403	498	477	462	491	> 500	481
CCOc1cc2ncc(C#N)c(Nc3ccc(OCc4ccccn4)c(Cl)c3)c2cc1NC(=O)/C=C/CN(C)C [Neratinib]	444	362	416	449	319	464	431	453	462	234	424
COc1ccc(-c2nc(N3CCOCC3)c3sc(CN(C)c4ncc(C(=O)NO)cn4)cc3n2)cn1 [Fimepinostat]	161	255	235	296	167	236	255	237	166	169	158
COc1ccc([C@@H](O)c2cc(-c3ncnc4cc(N5CCOCC5)ccc34)c(F)cc2Cl)nn1 [Nedisertib]	435	493	462	479	394	453	486	462	463	404	409
Cc1ccc(C(=O)Nc2ccc(Oc3cc4cnn(C)c4cc3-c3cn[nH]c3)c(F)c2)c(=O)n1-c1ccc(F)cc1 [Merestinib]	452	> 500	> 500	484	466	463	> 500	464	487	432	486
C=CC(=O)Nc1cc(Nc2nccc(-c3cn(C)c4ccccc34)n2)c(OC)cc1N(C)CCN(C)C [Osimertinib]	378	380	449	490	364	424	468	423	442	335	448

Compound	area under the viability dose-response curve (3E)	area under the viability dose-response curve (27F1)	area under the viability dose-response curve (96F1)	area under the viability dose-response curve (8F1)	area under the viability dose-response curve (13F2)	area under the viability dose-response curve (13E)	area under the viability dose-response curve (17F1)	area under the viability dose-response curve (22E)	area under the viability dose-response curve (135F2)	area under the viability dose-response curve (10F2)	area under the viability dose-response curve (17E)
C#Cc1cccc(Nc2ncnc3cc4c(cc23)OCCOCCOCCO4)c1 [Icotinib]	474	442	464	495	406	497	465	> 500	474	376	487
CO[C@H]1/C=C/C[C@H](C)[C@@H](C)S(=O)(=O)NC(=O)c2ccc3c(c2)N(C[C@@H]2CC[C@H]21)C[C@@]1(CCCc2cc(Cl)ccc21)CO3 [AMG-176]	369	450	488	475	344	421	481	454	431	274	434
CNC(=O)CN1CCC(Oc2cc3c(Nc4cccc(Cl)c4F)ncnc3cc2OC)CC1 [Sapitinib]	431	338	404	439	312	> 500	464	492	458	235	491
CCOC(=O)CCNc1cc(N2CCc3ccccc3CC2)nc(-c2ccccn2)n1 [GSK J4]	445	> 500	492	494	438	449	483	476	468	493	452
CC[C@]1(O)C[C@@H]2CN(CCc3c([nH]c4ccccc34)[C@@](C(=O)OC)(c3cc4c(cc3OC)N(C)[C@H]3[C@@](O)(C(=O)OC)[C@H](OC(C)=O)[C@]5(CC)C=CCN6CC[C@]43[C@@H]65)C2)C1 [Vinblastine]	148	194	156	220	189	164	208	223	176	160	183
O=C(NC1CCNCC1)c1n[nH]cc1NC(=O)c1c(Cl)cccc1Cl [AT7519]	332	456	387	381	361	348	381	371	396	378	406
CNCc1ccc(-c2cc(-c3nc(-c4ccc(S(=O)(=O)C(C)C)cc4)cnc3N)on2)cc1 [Berzosertib]	391	498	459	499	401	461	> 500	473	391	411	444
CCN1CCN(Cc2ccc(Nc3ncc(F)c(-c4cc(F)c5nc(C)n(C(C)C)c5c4)n3)nc2)CC1 [Abemaciclib]	264	402	411	448	314	408	452	395	360	314	284
CO[C@H]1C[C@@H]2CC[C@@H](C)[C@@](O)(O2)C(=O)C(=O)N2CCCC[C@H]2C(=O)O[C@H]([C@H](C)C[C@@H]2CC[C@@H](OCCO)[C@H](OC)C2)CC(=O)[C@H](C)/C=C(\C)[C@@H](O)[C@@H](OC)C(=O)[C@H](C)C[C@H](C)/C=C/C=C/C=C/1C [Everolimus]	303	> 500	464	467	327	393	494	356	453	373	334
CO[C@H]1C[C@@H]2CC[C@@H](C)[C@@](O)(O2)C(=O)C(=O)N2CCCC[C@H]2C(=O)O[C@H]([C@H](C)C[C@@H]2CC[C@@H](OC(=O)C(C)(CO)CO)[C@H](OC)C2)CC(=O)[C@H](C)/C=C(\C)[C@@H](O)[C@@H](OC)C(=O)[C@H](C)C[C@H](C)/C=C/C=C/C=C/1C [Temsirolimus]	280	475	496	493	342	373	471	406	469	339	341
Cc1ccc(NC(=O)c2ccc(CN3CCN(C)CC3)cc2)cc1Nc1nc(-c2cccnc2)cs1 [Masitinib]	483	> 500	484	> 500	489	489	> 500	474	473	497	462
CC(C)NC[C@@H](C(=O)N1CCN(c2ncnc3c2[C@H](C)C[C@H]3O)CC1)c1ccc(Cl)cc1 [Ipatasertib]	436	483	445	434	442	456	495	433	496	433	437
CC(C)(C)c1nc(-c2cccc(NS(=O)(=O)c3c(F)cccc3F)c2F)c(-c2ccnc(N)n2)s1 [Dabrafenib]	491	497	456	> 500	411	497	> 500	486	471	422	494
Cc1nc(Nc2ncc(C(=O)Nc3c(C)cccc3Cl)s2)cc(N2CCN(CCO)CC2)n1 [Dasatinib]	315	488	479	473	379	397	488	461	458	473	463
COc1cccc2c1C(=O)c1c(O)c3c(c(O)c1C2=O)C[C@@](O)(C(=O)CO)C[C@@H]3O[C@H]1C[C@H](N)[C@H](O)[C@H](C)O1 [Doxorubicin]	263	333	311	384	258	305	311	336	308	281	278
COc1ccc(Cn2ccc3ccc(C(=O)NO)cc32)cc1	452	483	487	474	472	490	484	452	488	454	475
